# Assay results from article PMC10746543, “Design principles for cyclin K molecular glue degraders” (Nature Chemical Biology, 2023).
# Several values for one entry are separate records, joined by “and”; a condition that tells them apart may be missing. Equal values may be shown once. Read-outs that look alike come from different tables or passages of the source.
# How the values were obtained:
# CDK12–cyclin K and DDB1 = target: T1, CDK12–cyclin K and DDB1 (Homo sapiens, UniProt Q16531+Q9NYV4, K965R); assay: TR-FRET ternary complex formation assay (compound titration); type: binding; conditions: for TR-FRET signal at compound concentration: replicate titrations; for fold lower affinity than DS11: TR-FRET complex formation
# T1 construct: His6–CDK12 (a.a. 713–1,052); full-length or beta-propeller B domain deletion (ΔBPB: a.a. 396–705 deleted) constructs of His6–DDB1ΔBPB, StrepII–Avi–DDB1, or His6–Spy–DDB1; made in house; host or cells: Trichoplusia ni High Five insect cells (baculovirus)
# T1 sequence (Q9NYV4 713-1052 K965R): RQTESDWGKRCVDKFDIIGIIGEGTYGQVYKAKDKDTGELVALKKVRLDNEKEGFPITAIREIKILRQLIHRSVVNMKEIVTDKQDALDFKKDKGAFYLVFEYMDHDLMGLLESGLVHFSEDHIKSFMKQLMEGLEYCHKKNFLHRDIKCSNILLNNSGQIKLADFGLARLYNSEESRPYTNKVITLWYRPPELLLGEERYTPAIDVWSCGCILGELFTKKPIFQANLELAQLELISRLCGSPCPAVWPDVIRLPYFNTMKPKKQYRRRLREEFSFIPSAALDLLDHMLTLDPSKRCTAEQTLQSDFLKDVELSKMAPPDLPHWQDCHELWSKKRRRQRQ
# T1 sequence (O75909 1-267 partner): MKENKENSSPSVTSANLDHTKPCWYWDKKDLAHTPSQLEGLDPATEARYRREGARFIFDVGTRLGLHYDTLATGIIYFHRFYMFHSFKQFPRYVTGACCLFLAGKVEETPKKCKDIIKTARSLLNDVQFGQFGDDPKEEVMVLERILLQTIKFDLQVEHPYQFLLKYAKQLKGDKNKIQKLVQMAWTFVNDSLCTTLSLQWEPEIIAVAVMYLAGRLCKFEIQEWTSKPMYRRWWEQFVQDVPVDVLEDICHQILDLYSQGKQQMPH
# T1 sequence (Q16531 whole entry): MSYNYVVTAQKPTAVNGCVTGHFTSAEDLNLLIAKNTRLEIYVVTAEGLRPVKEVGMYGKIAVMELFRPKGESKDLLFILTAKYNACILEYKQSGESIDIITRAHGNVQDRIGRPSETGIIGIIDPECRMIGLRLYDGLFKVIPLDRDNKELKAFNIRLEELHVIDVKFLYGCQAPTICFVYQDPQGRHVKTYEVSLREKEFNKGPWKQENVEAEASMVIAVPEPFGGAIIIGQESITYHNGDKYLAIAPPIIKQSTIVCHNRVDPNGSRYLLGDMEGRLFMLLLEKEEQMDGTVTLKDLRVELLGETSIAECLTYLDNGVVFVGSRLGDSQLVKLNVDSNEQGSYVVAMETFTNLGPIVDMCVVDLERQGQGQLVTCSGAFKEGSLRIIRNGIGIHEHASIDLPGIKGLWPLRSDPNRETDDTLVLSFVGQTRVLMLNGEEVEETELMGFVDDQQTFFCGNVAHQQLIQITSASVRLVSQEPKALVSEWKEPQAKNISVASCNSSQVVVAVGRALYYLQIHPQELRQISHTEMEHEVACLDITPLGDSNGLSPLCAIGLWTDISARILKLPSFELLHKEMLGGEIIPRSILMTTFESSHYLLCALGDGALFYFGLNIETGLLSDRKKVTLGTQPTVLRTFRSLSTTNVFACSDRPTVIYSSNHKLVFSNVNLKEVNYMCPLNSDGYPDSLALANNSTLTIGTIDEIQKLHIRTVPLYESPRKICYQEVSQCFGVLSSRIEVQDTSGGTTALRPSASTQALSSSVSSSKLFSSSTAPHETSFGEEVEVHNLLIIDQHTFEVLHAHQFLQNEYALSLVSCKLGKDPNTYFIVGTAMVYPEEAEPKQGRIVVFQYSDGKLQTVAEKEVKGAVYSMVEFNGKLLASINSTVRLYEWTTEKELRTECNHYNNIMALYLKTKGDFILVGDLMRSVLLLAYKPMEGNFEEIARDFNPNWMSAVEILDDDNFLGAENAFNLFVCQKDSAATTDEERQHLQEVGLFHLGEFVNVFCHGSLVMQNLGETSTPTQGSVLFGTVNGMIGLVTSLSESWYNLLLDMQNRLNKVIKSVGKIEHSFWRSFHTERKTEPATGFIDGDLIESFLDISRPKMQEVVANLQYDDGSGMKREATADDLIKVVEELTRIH
# In short: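 TR-FRET ratio 520/490 nm; 70 μs delay before read to suppress background.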
# [1] = tested on: cyclin K–eGFP degradation reporter; assay: Cyclin K reporter stability analysis (dual-color cyclin K–eGFP reporter); type: cell-based, human; conditions: Supplementary Table 2; HEK293T cycK-eGFP reporter, 5 h; read-out: Cellular assays DC50
# In short: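 Readout was the eGFP-to-mCherry geometric-mean ratio by flow cytometry, normalized to three DMSO controls, after 5 h drug exposure. Cells used were HEK293T–Cas9 expressing the dual-colour cyclin K–eGFP degradation reporter.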
# HEK293T cells = assay: Drug sensitivity assay (CellTiter-Glo viability) with or without MLN4924 pretreatment; type: cell-based, human; conditions: Supplementary Table 2; for EC50: Homo sapiens, HEK-293T, HEK293T viability, 72 h, compound alone, read-out: Cellular assays EC50; for Toxicity rescue: MLN4924-mediated cytotoxicity rescue, 10 µM used where n.d.
# In short: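 Luminescent ATP read-out (CellTiter-Glo) after 3 days of drug exposure, normalised to DMSO controls. Cells were HEK293T–Cas9, pretreated with 100 nM MLN4924 or DMSO for 2 h before drug dispensing.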
# [2] = Supplementary Table 2, read-out: TR-FRET EC50 TR-FRET
# [3] = compound concentration 0.468 nM
# [4] = compound concentration 7.92001 nM
# [5] = compound concentration 15.84 nM
# [6] = compound concentration 30.96 nM
# [7] = compound concentration 62.6401 nM
# [8] = compound concentration 125.28 nM
# [9] = compound concentration 244.8 nM
# [10] = compound concentration 993.601 nM
# [11] = compound concentration 2001.6 nM
# [12] = in vitro complex formation, 50 nM CDK12–cyclin K, 100 nM DDB1, text and figures, read-out: TR-FRET EC50
# [13] = sheet MOESM7, read-out: log TR-FRET EC50 (converted)
# [14] = compound concentration 79.2001 nM
# [15] = compound concentration 158.4 nM
# [16] = compound concentration 309.6 nM
# [17] = compound concentration 626.401 nM
# [18] = compound concentration 1252.8 nM
# [19] = compound concentration 9936.01 nM
# [20] = compound concentration 20016 nM
structure (smiles),measurement,setting,value
CC[C@H](CO)Nc1nc(NCCCc2ccccc2)c2ncn(C(C)C)c2n1 [DS11],EC50,CDK12–cyclin K and DDB1; [2],56.8 nM
same,TR-FRET signal,CDK12–cyclin K and DDB1; [3],0.241 and 0.2489
same,"TR-FRET signal, individual replicate",CDK12–cyclin K and DDB1; [3],0.241 and 0.2489
same,TR-FRET signal at compound concentration,CDK12–cyclin K and DDB1; [3],0.241 and 0.2489
same,TR-FRET signal,CDK12–cyclin K and DDB1; compound concentration 2.16 nM,0.2983 and 0.2991
same,"TR-FRET signal, individual replicate",CDK12–cyclin K and DDB1; compound concentration 2.16 nM,0.2983 and 0.2991
same,TR-FRET signal at compound concentration,CDK12–cyclin K and DDB1; compound concentration 2.16 nM,0.2983 and 0.2991
same,TR-FRET signal,CDK12–cyclin K and DDB1; compound concentration 3.6 nM,0.374 and 0.3698
same,"TR-FRET signal, individual replicate",CDK12–cyclin K and DDB1; compound concentration 3.6 nM,0.374 and 0.3698
same,TR-FRET signal at compound concentration,CDK12–cyclin K and DDB1; compound concentration 3.6 nM,0.374 and 0.3698
same,TR-FRET signal,CDK12–cyclin K and DDB1; [4],0.5495 and 0.5492
same,"TR-FRET signal, individual replicate",CDK12–cyclin K and DDB1; [4],0.5495 and 0.5492
same,TR-FRET signal at compound concentration,CDK12–cyclin K and DDB1; [4],0.5495 and 0.5492
same,TR-FRET signal,CDK12–cyclin K and DDB1; [5],0.8302 and 0.8222
same,"TR-FRET signal, individual replicate",CDK12–cyclin K and DDB1; [5],0.8302 and 0.8222
same,TR-FRET signal at compound concentration,CDK12–cyclin K and DDB1; [5],0.8302 and 0.8222
same,TR-FRET signal,CDK12–cyclin K and DDB1; [6],1.2679 and 1.278
same,"TR-FRET signal, individual replicate",CDK12–cyclin K and DDB1; [6],1.2679 and 1.278
same,TR-FRET signal at compound concentration,CDK12–cyclin K and DDB1; [6],1.2679 and 1.278
same,TR-FRET signal,CDK12–cyclin K and DDB1; [7],1.798 and 1.8918
same,"TR-FRET signal, individual replicate",CDK12–cyclin K and DDB1; [7],1.798 and 1.8918
same,TR-FRET signal at compound concentration,CDK12–cyclin K and DDB1; [7],1.798 and 1.8918
same,TR-FRET signal,CDK12–cyclin K and DDB1; [8],2.382 and 2.496
same,"TR-FRET signal, individual replicate",CDK12–cyclin K and DDB1; [8],2.382 and 2.496
same,TR-FRET signal at compound concentration,CDK12–cyclin K and DDB1; [8],2.382 and 2.496
same,TR-FRET signal,CDK12–cyclin K and DDB1; [9],2.742 and 2.9079
same,"TR-FRET signal, individual replicate",CDK12–cyclin K and DDB1; [9],2.742 and 2.9079
same,TR-FRET signal at compound concentration,CDK12–cyclin K and DDB1; [9],2.742 and 2.9079
same,TR-FRET signal,CDK12–cyclin K and DDB1; [10],3.1224 and 3.3313
same,"TR-FRET signal, individual replicate",CDK12–cyclin K and DDB1; [10],3.1224 and 3.3313
same,TR-FRET signal at compound concentration,CDK12–cyclin K and DDB1; [10],3.1224 and 3.3313
same,TR-FRET signal,CDK12–cyclin K and DDB1; [11],3.176 and 3.283
same,"TR-FRET signal, individual replicate",CDK12–cyclin K and DDB1; [11],3.176 and 3.283
same,TR-FRET signal at compound concentration,CDK12–cyclin K and DDB1; [11],3.176 and 3.283
same,EC50,CDK12–cyclin K and DDB1; [12],57 ± 3 nM
same,EC50,CDK12–cyclin K and DDB1; [13],56.8 nM
same,DC50,[1],> 10000 nM
same,EC50,HEK293T cells,> 10000 nM
same,Toxicity rescue,HEK293T cells,0%
CCCCN(CCCC)CCCNc1nc(N[C@H](CC)CO)nc2c1ncn2C(C)C [DS36],"TR-FRET signal, individual replicate",CDK12–cyclin K and DDB1; compound concentration 4.68 nM,0.2097 and 0.2275
same,"TR-FRET signal, individual replicate",CDK12–cyclin K and DDB1; compound concentration 21.6 nM,0.2087 and 0.2297
same,"TR-FRET signal, individual replicate",CDK12–cyclin K and DDB1; compound concentration 36 nM,0.2089 and 0.2353
same,"TR-FRET signal, individual replicate",CDK12–cyclin K and DDB1; [14],0.2163 and 0.2368
same,"TR-FRET signal, individual replicate",CDK12–cyclin K and DDB1; [15],0.2165 and 0.2428
same,"TR-FRET signal, individual replicate",CDK12–cyclin K and DDB1; [16],0.2214 and 0.244
same,"TR-FRET signal, individual replicate",CDK12–cyclin K and DDB1; [17],0.2373 and 0.2728
same,"TR-FRET signal, individual replicate",CDK12–cyclin K and DDB1; [18],0.2487 and 0.3013
same,"TR-FRET signal, individual replicate",CDK12–cyclin K and DDB1; compound concentration 2448 nM,0.2879 and 0.3168
same,"TR-FRET signal, individual replicate",CDK12–cyclin K and DDB1; [19],0.3262 and 0.358
same,"TR-FRET signal, individual replicate",CDK12–cyclin K and DDB1; [20],0.3249 and 0.3501
same,DC50,[1],> 10000 nM
same,EC50,HEK293T cells,> 10000 nM
same,Toxicity rescue,HEK293T cells,0%
CC[C@H](CO)Nc1nc(NCCCCc2ccccc2)c2ncn(C(C)C)c2n1 [DS09],EC50,CDK12–cyclin K and DDB1; [2],349 nM
same,fold lower affinity than DS11,CDK12–cyclin K and DDB1,5-10 fold
same,TR-FRET signal,CDK12–cyclin K and DDB1; compound concentration 4.68 nM,0.1538 and 0.1597
same,TR-FRET signal at compound concentration,CDK12–cyclin K and DDB1; compound concentration 4.68 nM,0.1538 and 0.1597
same,TR-FRET signal,CDK12–cyclin K and DDB1; compound concentration 21.6 nM,0.2215 and 0.2268
same,TR-FRET signal at compound concentration,CDK12–cyclin K and DDB1; compound concentration 21.6 nM,0.2215 and 0.2268
same,TR-FRET signal,CDK12–cyclin K and DDB1; compound concentration 36 nM,0.3624 and 0.3872
same,TR-FRET signal at compound concentration,CDK12–cyclin K and DDB1; compound concentration 36 nM,0.3624 and 0.3872
same,TR-FRET signal,CDK12–cyclin K and DDB1; [14],0.5721 and 0.6282
same,TR-FRET signal at compound concentration,CDK12–cyclin K and DDB1; [14],0.5721 and 0.6282
same,TR-FRET signal,CDK12–cyclin K and DDB1; [15],0.8913 and 0.9385
same,TR-FRET signal at compound concentration,CDK12–cyclin K and DDB1; [15],0.8913 and 0.9385
same,TR-FRET signal,CDK12–cyclin K and DDB1; [16],1.311 and 1.295
same,TR-FRET signal at compound concentration,CDK12–cyclin K and DDB1; [16],1.311 and 1.295
same,TR-FRET signal,CDK12–cyclin K and DDB1; [17],1.632 and 1.6565
same,TR-FRET signal at compound concentration,CDK12–cyclin K and DDB1; [17],1.632 and 1.6565
same,TR-FRET signal,CDK12–cyclin K and DDB1; [18],1.8858 and 2.021
same,TR-FRET signal at compound concentration,CDK12–cyclin K and DDB1; [18],1.8858 and 2.021
same,TR-FRET signal,CDK12–cyclin K and DDB1; compound concentration 2448 nM,2.206 and 2.209
same,TR-FRET signal at compound concentration,CDK12–cyclin K and DDB1; compound concentration 2448 nM,2.206 and 2.209
same,TR-FRET signal,CDK12–cyclin K and DDB1; [19],2.4811 and 2.469
same,TR-FRET signal at compound concentration,CDK12–cyclin K and DDB1; [19],2.4811 and 2.469
same,TR-FRET signal,CDK12–cyclin K and DDB1; [20],2.543 and 2.456
same,TR-FRET signal at compound concentration,CDK12–cyclin K and DDB1; [20],2.543 and 2.456
same,EC50,CDK12–cyclin K and DDB1; [12],349 ± 15 nM
same,EC50,CDK12–cyclin K and DDB1; [13],349 nM
same,DC50,[1],> 10000 nM
same,EC50,HEK293T cells,> 10000 nM
same,Toxicity rescue,HEK293T cells,0%
CC[C@H](CO)Nc1nc(NCCCCCCc2ccccc2)c2ncn(C(C)C)c2n1 [DS10],EC50,CDK12–cyclin K and DDB1; [2],595 nM
same,fold lower affinity than DS11,CDK12–cyclin K and DDB1,5-10 fold
same,TR-FRET signal at compound concentration,CDK12–cyclin K and DDB1; compound concentration 4.68 nM,0.1344 and 0.1608
same,TR-FRET signal at compound concentration,CDK12–cyclin K and DDB1; compound concentration 21.6 nM,0.1474 and 0.1725
same,TR-FRET signal at compound concentration,CDK12–cyclin K and DDB1; compound concentration 36 nM,0.1731 and 0.2063
same,TR-FRET signal at compound concentration,CDK12–cyclin K and DDB1; [14],0.1998 and 0.2552
same,TR-FRET signal at compound concentration,CDK12–cyclin K and DDB1; [15],0.2546 and 0.3178
same,TR-FRET signal at compound concentration,CDK12–cyclin K and DDB1; [16],0.334 and 0.4076
same,TR-FRET signal at compound concentration,CDK12–cyclin K and DDB1; [17],0.4243 and 0.5117
same,TR-FRET signal at compound concentration,CDK12–cyclin K and DDB1; [18],0.5049 and 0.5958
same,TR-FRET signal at compound concentration,CDK12–cyclin K and DDB1; compound concentration 2448 nM,0.6152 and 0.6779
same,TR-FRET signal at compound concentration,CDK12–cyclin K and DDB1; [19],0.7339 and 0.7716
same,TR-FRET signal at compound concentration,CDK12–cyclin K and DDB1; [20],0.6991 and 0.7616
same,EC50,CDK12–cyclin K and DDB1; [12],595 ± 91 nM
same,DC50,[1],> 10000 nM
same,EC50,HEK293T cells,> 10000 nM
same,Toxicity rescue,HEK293T cells,0%
